Values quoted from earlier work, collected in US6472583B1, “Plasmid-based mutation detection system in transgenic fish” (The University of Georgia Research Foundation, Inc., priority 1998, dated 2002).
Read-outs that look alike come from different tables or passages of the source.

Tests used:
[1] = species not stated
λLIZ transgenic fish = conditions: previous studies using λLIZ transgenic fish

For `CCN(N=O)C(N)=O` [ENU, N-ethyl-N-nitrosourea], the LD50 [1] is given as roughly 350 mg/kg, the mutation frequency induction (λLIZ transgenic fish; dose about 0.5 mM (60 ppm)) is given as “two-fold” and the mutation frequency induction (λLIZ transgenic fish; dose about 120 ppm, medaka) is given as “four-fold”.
